The record followed here is patent US20180141962A1, “AZACARBAZOLE BTK INHIBITORS” (MERCK SHARP & DOHME CORP., priority 2015, published 2018).

For orientation: IC50 means the midpoint of a concentration-inhibition curve.

T1 sequence (Q06187 whole entry): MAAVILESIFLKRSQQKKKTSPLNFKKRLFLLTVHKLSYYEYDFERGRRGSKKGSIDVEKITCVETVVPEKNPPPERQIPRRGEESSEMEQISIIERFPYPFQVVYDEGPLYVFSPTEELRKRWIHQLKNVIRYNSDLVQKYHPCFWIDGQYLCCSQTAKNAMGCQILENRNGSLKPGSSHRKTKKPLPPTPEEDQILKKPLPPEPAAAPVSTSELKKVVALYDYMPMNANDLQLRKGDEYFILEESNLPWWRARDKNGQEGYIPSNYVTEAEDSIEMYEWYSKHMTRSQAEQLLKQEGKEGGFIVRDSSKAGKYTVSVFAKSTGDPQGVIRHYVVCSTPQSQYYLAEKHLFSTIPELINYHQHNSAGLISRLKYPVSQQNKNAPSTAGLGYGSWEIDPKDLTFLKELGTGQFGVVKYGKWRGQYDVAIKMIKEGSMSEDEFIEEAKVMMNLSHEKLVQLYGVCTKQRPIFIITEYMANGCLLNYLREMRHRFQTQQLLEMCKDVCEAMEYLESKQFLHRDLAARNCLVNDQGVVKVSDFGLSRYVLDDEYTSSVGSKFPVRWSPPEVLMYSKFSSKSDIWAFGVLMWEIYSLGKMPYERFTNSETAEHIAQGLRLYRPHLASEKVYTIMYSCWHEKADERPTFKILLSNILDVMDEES

The test has as its target T1, BTK enzyme (recombinant full-length BTK, hBTK) (Homo sapiens, UniProt Q06187).
T1 construct: recombinant protein from baculovirus-transfected Sf9 cells: full-length BTK, 6HIS-tag cleaved; 6HIS (cleaved yes); made in house; host or cells: baculovirus-transfected Sf9 cells
Kind of test: Btk enzyme activity assay, LANCE TR-FRET. Type of test: biochemical. To be noted: 50 pM hBTK, 2 μM biotin-A5-peptide, 25 μM ATP; 60 minute compound & enzyme incubation; 120 minutes reaction; read-out: BTK binding potency IC50. The procedure:
Btk Enzyme Activity Assay Methods
BTK enzymatic activity was determined with the LANCE (Lanthanide Chelate Excite) TR-FRET (lime-resolved fluorescence resonance energy transfer) assay. […] Phosphorylation reactions were allowed to proceed for 120 minutes. […] After 60 minutes incubation with detection reagents, reaction plates were read on a PerkinElmer EnVision plate reader using standard TR-FRET protocol. Briefly, excitation of donor molecules (Eu-chelate:anti-phospho-antibody) with a laser light source at 337 nm produces energy that can be transferred to Dylight-650 acceptor molecules if this donor:acceptor pair is within close proximity. Fluorescence intensity at both 665 nm (acceptor) and 615 nm (donor) are measured and a TR-FRET ratio calculated for each well (acceptor intensity/donor intensity). IC50 values were determined by 4 parameter robust fit of TR-FRET ratio values vs. (Log10) compound concentrations.
As to `CC(C)N1CCCC2(CCCN(c3ncc(C(N)=O)c4[nH]c5ccccc5c34)C2)C1=O` (centres unmarked) [Example 39, 1-[8-(1-methylethyl)-7-oxo-2,8-diazaspiro[5.5]undec-2-yl]-5H-pyrido[4,3-b]indole-4-carboxamide], the IC50 came out at 120 nM.

As to `NC(=O)c1cnc(N2CCCC3(CCNC3=O)C2)c2c1[nH]c1cc(C3CCNCC3)ccc12` (centres unmarked) [Example 42, 1-(1-oxo-2,7-diazaspiro[4.5]decan-7-yl)-7-(piperidin-4-yl)-5H-pyrido[4,3-b]indole-4-carboxamide], the IC50 amounted to 1.4 nM.

Consider `CC(C)(C)OC(=O)N1CCC(c2ccc3c(c2)[nH]c2c(C(N)=O)cnc(N4CCCC5(CCNC5=O)C4)c23)CC1` (centres unmarked) [Example 43, tert-butyl 4-[4-carbamoyl-1-(1-oxo-2,7-diazaspiro[4.5]dec-7-yl)-5H-pyrido[4,3-b]indol-7-yl]piperidine-1-carboxylate], for which the IC50 was found to be 7.4 nM.

`NC(=O)c1cnc(N2CCCC3(CCNC3=O)C2)c2c1[nH]c1cc(C3CCCNC3)ccc12` (centres unmarked) [Example 44, 1-(1-oxo-2,7-diazaspiro[4.5]dec-7-yl)-7-piperidin-3-yl-5H-pyrido[4,3-b]indole-4-carboxamide]: the IC50 worked out at 1.6 nM.

Take `NC(=O)c1cnc(N2CCCC3(CCNC3=O)C2)c2c1[nH]c1ccc(C3CCNCC3)cc12` (centres unmarked) [Example 45, 1-(1-oxo-2,7-diazaspiro[4.5]dec-7-yl)-8-piperidin-4-yl-5H-pyrido[4,3-b]indole-4-carboxamide]: the IC50 was determined as 204 nM.

Consider `CC(C)(C)OC(=O)N1CCC(c2ccc3[nH]c4c(C(N)=O)cnc(N5CCCC6(CCNC6=O)C5)c4c3c2)CC1` (centres unmarked) [Example 46, tert-butyl 4-[4-carbamoyl-1-(1-oxo-2,7-diazaspiro[4.5]dec-7-yl)-5H-pyrido[4,3-b]indol-8-yl]piperidine-1-carboxylate], for which the IC50 was 377 nM.

In the case of `CNC(=O)N1CCC(c2ccc3[nH]c4c(C(N)=O)cnc(N5CCCC6(CCNC6=O)C5)c4c3c2)CC1` (centres unmarked) [Example 47, 8-[1-(methylcarbamoyl)piperidin-4-yl]-1-(1-oxo-2,7-diazaspiro[4.5]dec-7-yl)-5H-pyrido[4,3-b]indole-4-carboxamide], the IC50 came to 72.6 nM.

Take `NC(=O)c1cnc(N2CCCC3(CCNC3=O)C2)c2c1[nH]c1ccc(C3CCN(CC(=O)O)CC3)cc12` (centres unmarked) [Example 48, {4-[4-carbamoyl-1-(1-oxo-2,7-diazaspiro[4.5]dec-7-yl)-5H-pyrido[4,3-b]indol-8-yl]piperidin-1-yl}acetic acid]: the IC50 was determined as 47.6 nM.

With `CCN1CCC(c2ccc3[nH]c4c(C(N)=O)cnc(N5CCCC6(CCNC6=O)C5)c4c3c2)CC1` (centres unmarked) [Example 49, 8-(1-ethylpiperidin-4-yl)-1-(1-oxo-2,7-diazaspiro[4.5]dec-7-yl)-5H-pyrido[4,3-b]indole-4-carboxamide], the half-inhibitory concentration (IC50) worked out at 87.3 nM.

In the case of `CC(C)N1CCC(c2ccc3[nH]c4c(C(N)=O)cnc(N5CCCC6(CCNC6=O)C5)c4c3c2)CC1` (centres unmarked) [Example 50, 8-[1-(1-methylethyl)piperidin-4-yl]-1-(1-oxo-2,7-diazaspiro[4.5]dec-7-yl)-5H-pyrido[4,3-b]indole-4-carboxamide], the IC50 was found to be 58.7 nM.

Take `COC(=O)N1CCC(c2ccc3[nH]c4c(C(N)=O)cnc(N5CCCC6(CCNC6=O)C5)c4c3c2)CC1` (centres unmarked) [Example 51, methyl 4-[4-carbamoyl-1-(1-oxo-2,7-diazaspiro[4.5]dec-7-yl)-5H-pyrido[4,3-b]indol-8-yl]piperidine-1-carboxylate]: the IC50 was 87.9 nM.

Regarding `CC(C)N1CCC(c2ccc3c(c2)[nH]c2c(C(N)=O)cnc(N4CCCC5(CCNC5=O)C4)c23)CC1` (centres unmarked) [Example 52, 7-[1-(1-methylethyl)piperidin-4-yl]-1-(1-oxo-2,7-diazaspiro[4.5]dec-7-yl)-5H-pyrido[4,3-b]indole-4-carboxamide], the IC50 turned out to be 0.96 nM.

Regarding `CNC(=O)N1CCC(c2ccc3c(c2)[nH]c2c(C(N)=O)cnc(N4CCCC5(CCNC5=O)C4)c23)CC1` (centres unmarked) [Example 53, 7-[1-(methylcarbamoyl)piperidin-4-yl]-1-(1-oxo-2,7-diazaspiro[4.5]dec-7-yl)-5H-pyrido[4,3-b]indole-4-carboxamide], the IC50 was 1.4 nM.

Take `CC(C)(O)CN1CCC(c2ccc3c(c2)[nH]c2c(C(N)=O)cnc(N4CCCC5(CCNC5=O)C4)c23)CC1` (centres unmarked) [Example 54, 7-[1-(2-hydroxy-2-methylpropyl)piperidin-4-yl]-1-(1-oxo-2,7-diazaspiro[4.5]dec-7-yl)-5H-pyrido[4,3-b]indole-4-carboxamide]: the IC50 stood at 1.2 nM.

For the compound `CN1CCC(c2ccc3c(c2)[nH]c2c(C(N)=O)cnc(N4CCCC5(CCNC5=O)C4)c23)CC1` (centres unmarked) [Example 55, 7-(1-methylpiperidin-4-yl)-1-(1-oxo-2,7-diazaspiro[4.5]dec-7-yl)-5H-pyrido[4,3-b]indole-4-carboxamide], the IC50 was found to be 1.3 nM.

Turning to `COC(=O)N1CCC(c2ccc3c(c2)[nH]c2c(C(N)=O)cnc(N4CCCC5(CCNC5=O)C4)c23)CC1` (centres unmarked) [Example 56, methyl 4-[4-carbamoyl-1-(1-oxo-2,7-diazaspiro[4.5]dec-7-yl)-5H-pyrido[4,3-b]indol-7-yl]piperidine-1-carboxylate], the IC50 amounted to 3 nM.

With `CS(=O)(=O)N1CCC(c2ccc3c(c2)[nH]c2c(C(N)=O)cnc(N4CCCC5(CCNC5=O)C4)c23)CC1` (centres unmarked) [Example 57, 7-[1-(methylsulfonyl)piperidin-4-yl]-1-(1-oxo-2,7-diazaspiro[4.5]dec-7-yl)-5H-pyrido[4,3-b]indole-4-carboxamide], the IC50 was 2.1 nM.

Consider `CC(=O)N1CCC(c2ccc3c(c2)[nH]c2c(C(N)=O)cnc(N4CCCC5(CCNC5=O)C4)c23)CC1` (centres unmarked) [Example 58, 7-(1-acetylpiperidin-4-yl)-1-(1-oxo-2,7-diazaspiro[4.5]dec-7-yl)-5H-pyrido[4,3-b]indole-4-carboxamide], for which the IC50 turned out to be 1.4 nM.

As for `NC(=O)c1cnc(N2CCCC3(CCNC3=O)C2)c2c1[nH]c1cc(C3CCN(CC(=O)O)CC3)ccc12` (centres unmarked) [Example 59, {4-[4-carbamoyl-1-(1-oxo-2,7-diazaspiro[4.5]dec-7-yl)-5H-pyrido[4,3-b]indol-7-yl]piperidin-1-yl}acetic acid], the IC50 came out at 1.6 nM.

Consider `CN1CCC(c2ccc3[nH]c4c(C(N)=O)cnc(N5CCCC6(CCNC6=O)C5)c4c3c2)CC1` (centres unmarked) [Example 60, 8-(1-methylpiperidin-4-yl)-1-(1-oxo-2,7-diazaspiro[4.5]dec-7-yl)-5H-pyrido[4,3-b]indole-4-carboxamide], for which the IC50 worked out at 76.9 nM.

Consider `CC(=O)N1CCC(c2ccc3[nH]c4c(C(N)=O)cnc(N5CCCC6(CCNC6=O)C5)c4c3c2)CC1` (centres unmarked) [Example 61, 8-(1-acetylpiperidin-4-yl)-1-(1-oxo-2,7-diazaspiro[4.5]dec-7-yl)-5H-pyrido[4,3-b]indole-4-carboxamide], for which the IC50 turned out to be 81.8 nM.

As to `CC(C)(O)CN1CCC(c2ccc3[nH]c4c(C(N)=O)cnc(N5CCCC6(CCNC6=O)C5)c4c3c2)CC1` (centres unmarked) [Example 62, 8-[1-(2-hydroxy-2-methylpropyl)piperidin-4-yl]-1-(1-oxo-2,7-diazaspiro[4.5]dec-7-yl)-5H-pyrido[4,3-b]indole-4-carboxamide], the IC50 is 59.7 nM.

For `NC(=O)c1cnc(N2CCCC3(CCNC3=O)C2)c2c1[nH]c1ccc(C(O)CO)cc12` (centres unmarked) [Example 65, 8-(1,2-dihydroxyethyl)-1-(1-oxo-2,7-diazaspiro[4.5]dec-7-yl)-5H-pyrido[4,3-b]indole-4-carboxamide], the IC50 worked out at 16.5 nM.

Consider `CS(=O)(=O)N1CCC(c2ccc3[nH]c4c(C(N)=O)cnc(N5CCCC6(CCNC6=O)C5)c4c3c2)CC1` (centres unmarked) [Example 66, 8-[1-(methylsulfonyl)piperidin-4-yl]-1-(1-oxo-2,7-diazaspiro[4.5]dec-7-yl)-5H-pyrido[4,3-b]indole-4-carboxamide], for which the IC50 is 125 nM.

Turning to `COc1ccc(-c2ccc3c(c2)[nH]c2c(C(N)=O)cnc(N4CCC[C@@]5(CCNC5=O)C4)c23)cn1` [Example 67, 7-(6-methoxypyridin-3-yl)-1-[(5R)-1-oxo-2,7-diazaspiro[4.5]dec-7-yl]-5H-pyrido[4,3-b]indole-4-carboxamide], the IC50 worked out at 13.9 nM.

As to `NC(=O)c1cnc(N2CCC[C@@]3(CCNC3=O)C2)c2c1[nH]c1cc(-c3ccc(=O)[nH]c3)ccc12` [Example 68, 1-[(5R)-1-oxo-2,7-diazaspiro[4.5]dec-7-yl]-7-(6-oxo-1,6-dihydropyridin-3-yl)-5H-pyrido[4,3-b]indole-4-carboxamide], the IC50 was 3.9 nM.

Turning to `COc1cc(-c2ccc3c(c2)[nH]c2c(C(N)=O)cnc(N4CCC[C@@]5(CCNC5=O)C4)c23)ccn1` [Example 69, 7-(2-methoxypyridin-4-yl)-1-[(5R)-1-oxo-2,7-diazaspiro[4.5]dec-7-yl]-5H-pyrido[4,3-b]indole-4-carboxamide], the IC50 turned out to be 17.5 nM.

As for `NC(=O)c1cnc(N2CCC[C@@]3(CCNC3=O)C2)c2c1[nH]c1cc(-c3cc[nH]c(=O)c3)ccc12` [Example 70, 1-[(5R)-1-oxo-2,7-diazaspiro[4.5]dec-7-yl]-7-(2-oxo-1,2-dihydropyridin-4-yl)-5H-pyrido[4,3-b]indole-4-carboxamide], the IC50 amounted to 5.4 nM.

With `CC(C)N1CCC(c2ccc3c(c2)[nH]c2c(C(N)=O)cnc(N4CCC[C@@]5(CCNC5=O)C4)c23)CC1` [Example 71, 7-[1-(1-methylethyl)piperidin-4-yl]-1-[(5R)-1-oxo-2,7-diazaspiro[4.5]dec-7-yl]-5H-pyrido[4,3-b]indole-4-carboxamide], the IC50 is 0.83 nM.
